The results in this text go back to patent publication US7041698B2, “Hepatitis C virus inhibitors” (Bristol-Myers Squibb Company, priority 2002, dated 2006).

Assay [1] concerns the target T1, HCV NS3/4A protease complex (UniProt P27958, C1454S/C1711G, species not given).
T1 construct: fused on or other part: Three-lysine solubilising tail at the C-terminus of NS4A
Nature of the assay: Recombinant HCV NS3/4A protease complex FRET peptide assay (strain not stated). It counts as biochemical. The settings on record: read-out: IC50 range, HCV NS3/4A protease enzyme assay.

The next assay concerns the target T2, NS3/4A H77C strain (Hepatitis C virus genotype 1a, UniProt P27958, C1454S).
T2 construct: DNA encoding the recombinant HCV NS3/4A protease complex (amino acids 1027 to 1711) for these strains; His tag (inferred from pET21b vector and Ni-NTA purification); made in house; host or cells: Escherichia coli BL21 (DE3)
Nature of the assay: Recombinant HCV NS3/4A protease complex FRET peptide assay, H77C strain. It counts as biochemical, HCV genotype 1a. The source says: Recombinant HCV NS3/4A Protease Complex FRET Peptide Assay
The purpose of this in vitro assay was to measure the inhibition of HCV NS3 protease complexes, derived from the BMS, H77C or J416S strains, as described below, by compounds of the present invention. This assay provides an indication of how effective compounds of the present invention would be in inhibiting HCV proteolytic activity.
Serum from an HCV-infected patient was obtained from Dr. T. Wright, San Francisco Hospital. An engineered full-length cDNA (compliment deoxyribonucleic acid) template of the HCV genome (BMS strain) was constructed from DNA fragments obtained by reverse transcription-PCR (RT-PCR) of serum RNA (ribonucleic acid) and using primers selected on the basis of homology between other genotype 1a strains. From the determination of the entire genome sequence, a genotype 1a was assigned to the HCV isolate according to the classification of Simmonds et al. (See P Simmonds, K A Rose, S Graham, S W Chan, F McOmish, B C Dow, E A Follett, P L Yap and H Marsden, J. Clin. Microbiol., 31(6), 1493–1503 (1993)). […]

T2 sequence (P27958 1027-1657 C1454S): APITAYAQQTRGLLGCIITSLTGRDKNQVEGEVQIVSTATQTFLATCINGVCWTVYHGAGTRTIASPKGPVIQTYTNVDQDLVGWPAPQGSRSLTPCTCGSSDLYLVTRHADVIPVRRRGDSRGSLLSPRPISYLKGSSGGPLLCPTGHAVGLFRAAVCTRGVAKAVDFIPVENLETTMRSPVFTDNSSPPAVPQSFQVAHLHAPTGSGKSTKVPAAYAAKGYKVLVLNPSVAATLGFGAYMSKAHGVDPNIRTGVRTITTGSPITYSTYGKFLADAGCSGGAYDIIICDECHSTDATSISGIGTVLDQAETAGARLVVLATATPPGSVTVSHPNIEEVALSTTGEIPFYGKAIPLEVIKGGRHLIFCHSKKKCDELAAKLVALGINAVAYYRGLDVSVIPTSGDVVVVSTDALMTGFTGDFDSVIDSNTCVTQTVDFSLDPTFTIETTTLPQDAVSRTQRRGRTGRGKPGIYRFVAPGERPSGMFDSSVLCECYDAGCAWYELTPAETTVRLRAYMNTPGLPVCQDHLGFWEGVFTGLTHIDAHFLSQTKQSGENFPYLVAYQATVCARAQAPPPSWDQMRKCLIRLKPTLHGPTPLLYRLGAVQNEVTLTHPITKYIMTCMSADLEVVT
T2 sequence (P27958 1658-1714 partner, looked up, stated change not applied): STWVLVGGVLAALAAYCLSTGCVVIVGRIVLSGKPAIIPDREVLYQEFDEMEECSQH

Take `C=CC1C[C@]1(NC(=O)[C@@H]1C[C@@H](OC(=O)Nc2ccccc2-c2ccccc2)CN1C(=O)[C@@H](NC(=O)OC(C)(C)C)C(C)(C)C)C(=O)NS(=O)(=O)C1CC1` (stereo partly drawn) [Compound 8, BocNH-P3(t-BuGly)-P2(Hyp(O—CO(NH-biphen-2-yl)))-P1(1R,2S VinylAcca)—CONHSO2Cyclopropane]: the values for the IC50 (in assay [1]; at NS3/4A H77C strain) were less than 100 nM and 11 nM, respectively.
